DC50 data for 39 molecules are collected here from patent US12391686B2, “Compounds and uses thereof” (Foghorn Therapeutics Inc., priority 2019, dated 2025).

Where only a bound is given, the exact number is not on record here.

The target in this test is T1, Nanoluciferase-BRD9 fusion protein (3×FLAG-NLuc-BRD9) in SYO-1 cells (Homo sapiens, UniProt Q9H8M2).
T1 construct: expressed in transfected cells; host or cells: SYO-1
T1 sequence (Q9H8M2 1-597): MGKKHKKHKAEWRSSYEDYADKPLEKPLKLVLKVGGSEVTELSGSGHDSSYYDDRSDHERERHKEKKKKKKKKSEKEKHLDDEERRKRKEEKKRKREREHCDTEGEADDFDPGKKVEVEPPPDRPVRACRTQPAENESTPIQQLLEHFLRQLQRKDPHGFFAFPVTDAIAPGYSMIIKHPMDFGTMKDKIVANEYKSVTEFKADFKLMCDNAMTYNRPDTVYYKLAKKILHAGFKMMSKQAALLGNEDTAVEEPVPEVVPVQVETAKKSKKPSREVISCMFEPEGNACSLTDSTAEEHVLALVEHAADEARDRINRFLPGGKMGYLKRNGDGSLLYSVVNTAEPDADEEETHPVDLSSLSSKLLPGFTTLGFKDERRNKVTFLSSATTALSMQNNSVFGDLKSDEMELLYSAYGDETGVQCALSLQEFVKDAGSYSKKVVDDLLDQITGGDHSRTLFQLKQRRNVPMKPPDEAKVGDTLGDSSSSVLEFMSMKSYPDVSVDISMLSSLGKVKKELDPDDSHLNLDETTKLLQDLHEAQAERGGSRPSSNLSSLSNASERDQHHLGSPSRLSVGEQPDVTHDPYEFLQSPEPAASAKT
The test can be described thus: SYO1 BRD9 NanoLuc Degradation Assay. It is filed as cell-based. To be noted: Table 6C; SYO-1 cells expressing 3×FLAG-NLuc-BRD9, 6 hours incubation, 1 μM top dose; read-out: SYO1 BRD9-NanoLuc degradation IC50. The gist of the method: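 NanoLuc signal, read by Nano-Glo luminescence after 6 h compound exposure, gives % inhibition against DMSO-treated cells (high control) and cells given 1 μM of a standard BRD9 degrader (low control). Test compounds ran as 10-point 3-fold series, top 1 μM final, in duplicate on SYO-1 cells stably expressing 3×FLAG-NLuc-BRD9.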

For `COc1cc(-c2cn(C)c(=O)c3cnc(N4CC(F)C4)cc23)cc(OC)c1CN1CCC(CN2CCC3(CC2)CN(c2ccc4c(c2)C(=O)N(C2CCC(=O)NC2=O)C4)C3)CC1` (stereo not drawn) [Compound D206], the DC50 is < 10 nM. Turning to `COc1cc(-c2cn(C)c(=O)c3cnc(N4CC[C@@H]4C)cc23)cc(OC)c1CN1CCC(CN2CCC3(CC2)CN(c2ccc4c(c2)C(=O)N(C2CCC(=O)NC2=O)C4)C3)CC1` (stereo partly drawn) [Compound D207], the DC50 is < 10 nM.

As to `COc1cc(-c2cn(C)c(=O)c3cnc(N4CC[C@H]4C)cc23)cc(OC)c1CN1CCC(CN2CCC3(CC2)CN(c2ccc4c(c2)C(=O)N(C2CCC(=O)NC2=O)C4)C3)CC1` (stereo partly drawn) [Compound D208], the DC50 is < 10 nM. `COc1cc(-c2cn(C)c(=O)c3cnc(N4CC(C)(OC)C4)cc23)cc(OC)c1CN1CCC(CN2CCC3(CC2)CN(c2ccc4c(c2)C(=O)N(C2CCC(=O)NC2=O)C4)C3)CC1` (stereo not drawn) [Compound D209]: the DC50 is < 10 nM. In the case of `COc1cc(-c2cn(C)c(=O)c3cnc(N4CC(C)(OC)C4)cc23)cc(OC)c1CN1CC(CN2CCC3(CC2)CN(c2ccc4c(c2)C(=O)N(C2CCC(=O)NC2=O)C4)C3)C1` (stereo not drawn) [Compound D210], the DC50 was < 10 nM.

As for `COc1cc(-c2cn(C)c(=O)c3cnc(N4CC(F)(F)C4)cc23)cc(OC)c1CN1CC(CN2CCC3(CC2)CN(c2ccc4c(c2)C(=O)N(C2CCC(=O)NC2=O)C4)C3)C1` (stereo not drawn) [Compound D211], the DC50 is < 10 nM. As to `COc1cc(-c2cn(C)c(=O)c3cnc(N4CC[C@H]4C)cc23)cc(OC)c1CN1CC(CN2CCC3(CC2)CN(c2ccc4c(c2)C(=O)N(C2CCC(=O)NC2=O)C4)C3)C1` (stereo partly drawn) [Compound D212], the DC50 is < 10 nM.

Regarding `COc1cc(-c2cn(C)c(=O)c3cnc(N4CC[C@@H]4C)cc23)cc(OC)c1CN1CC(CN2CCC3(CC2)CN(c2ccc4c(c2)C(=O)N(C2CCC(=O)NC2=O)C4)C3)C1` (stereo partly drawn) [Compound D213], the DC50 was < 10 nM. With `COc1cc(-c2cn(C)c(=O)c3cnc(C(C)(C)C)cc23)cc(OC)c1CN1CCC(CN2CCC3(CC2)CC(Oc2ccc4c(c2)C(=O)N(C2CCC(=O)NC2=O)C4)C3)CC1` (stereo not drawn) [Compound D214], the DC50 was < 10 nM. In the case of `COCC1CN(CCC2CCN(c3ccc4c(c3)C(=O)N(C3CCC(=O)NC3=O)C4=O)CC2)CCN1Cc1c(OC)cc(-c2cn(C)c(=O)c3cnc(N4CCC4)cc23)cc1OC` (stereo not drawn) [Compound D215] it was < 10 nM; in that of `COc1cc(-c2cn(C)c(=O)c3cnc(C4(C)CC4)cc23)cc(OC)c1CN1CCC(CCN2CCN(c3ccc4c(c3)C(=O)N(C3CCC(=O)NC3=O)C4=O)CC2)CC1` (stereo not drawn) [Compound D216], < 10 nM. Regarding `COc1cc2c(-c3cc(OC)c(CN4CCN(c5ccc6c(c5)C(=O)N(C5CCC(=O)NC5=O)C6)CC4)c(OC)c3)cn(C)c(=O)c2cn1` (stereo not drawn) [Compound D217], the DC50 is < 10 nM. Next, `COc1cc(-c2cn(C)c(=O)c3cnc(N4CCC4)cc23)cc(OC)c1CN1CCC(CN2CCC3(CC2)CN(c2ccc4c(c2)CN(C2CCC(=O)NC2=O)C4=O)C3)CC1` (stereo not drawn) [Compound D218]: < 10 nM; `COc1cc(-c2cn(C)c(=O)c3cnc(C4CC4)cc23)cc(OC)c1CN1CCC2(CC1)CN(c1ccc3c(c1)C(=O)N(C1CCC(=O)NC1=O)C3=O)C2` (stereo not drawn) [Compound D219]: < 10 nM. For `COc1cc(-c2cn(C)c(=O)c3cnc(C4CC4)cc23)cc(OC)c1CN1CCC2(CC1)CN(c1ccc3c(c1)CN(C1CCC(=O)NC1=O)C3=O)C2` (stereo not drawn) [Compound D220], the DC50 was < 10 nM. Turning to `COc1cc(-c2cn(C)c(=O)c3cnc(N4CCC4)c(F)c23)cc(OC)c1CN1CC(CN2CCC3(CC2)CN(c2ccc4c(c2)C(=O)N(C2CCC(=O)NC2=O)C4)C3)C1` (stereo not drawn) [Compound D221], the DC50 was < 10 nM.

As to `COc1cc(-c2cn(C)c(=O)c3cnc(N4CCC4)cc23)cc(OC)c1CN1[C@H](C)CN(CCC2CCN(c3ccc4c(c3)C(=O)N(C3CCC(=O)NC3=O)C4=O)CC2)C[C@H]1C` (stereo partly drawn) [Compound D222], the DC50 was < 10 nM.

Consider `[2H]C([2H])([2H])n1cc(-c2cc(OC)c(CN3CCN(CCC4CCN(c5ccc6c(c5)CN(C5CCC(=O)NC5=O)C6=O)CC4)CC3)c(OC)c2)c2cc(N(C)C)ncc2c1=O` (stereo not drawn) [Compound D223], for which the DC50 is < 10 nM. In the case of `COc1cc2c(-c3cc(OC)c(CN4CCN(CCC5CCN(c6ccc7c(c6)CN(C6CCC(=O)NC6=O)C7=O)CC5)CC4)c(OC)c3)cn(C)c(=O)c2cn1` (stereo not drawn) [Compound D224], the DC50 was < 10 nM. In the case of `COc1cc2c(-c3cc(OC)c(CN4CCN(CCC5CCN(c6ccc7c(c6)C(=O)N(C6CCC(=O)NC6=O)C7)CC5)CC4)c(OC)c3)cn(C)c(=O)c2cn1` (stereo not drawn) [Compound D225] it was < 10 nM; in that of `COc1cc(-c2cn(C)c(=O)c3cnc(C4CC4)cc23)cc(OC)c1CN1CCC2(CC1)CN(c1ccc3c(c1)C(=O)N(C1CCC(=O)NC1=O)C3)C2` (stereo not drawn) [Compound D226], < 10 nM; in that of `COc1cc(-c2cn(C)c(=O)c3cnc(N4CCC4)cc23)cc(OC)c1CN1CCC(CN2CCC3(CN(c4ccc5c(c4)C(=O)N(C4CCC(=O)NC4=O)C5)C3)C(F)(F)C2)CC1` (stereo not drawn) [Compound D227], < 10 nM. With `COc1cc(-c2cn(C)c(=O)c3cnc(C(C)(C)O)cc23)cc(OC)c1CN1CCC(CN2CCC3(CC2)CC(Oc2ccc4c(c2)C(=O)N(C2CCC(=O)NC2=O)C4)C3)CC1` (stereo not drawn) [Compound D228], the DC50 is < 10 nM. Take `COc1cc(-c2cn(C)c(=O)c3cnc(C4(C)CC4)cc23)cc(OC)c1CN1CC(Oc2ccc3c(c2)C(=O)N(C2CCC(=O)NC2=O)C3=O)C1` (stereo not drawn) [Compound D229]: the DC50 is < 10 nM. For the molecule `[2H]C([2H])([2H])n1cc(-c2cc(OC)c(CN3CCN(CCC4CCN(c5ccc6c(c5)CN(C5CCC(=O)NC5=O)C6=O)CC4)CC3)c(OC)c2)c2cc(OC)ncc2c1=O` (stereo not drawn) [Compound D230], the DC50 is < 10 nM.

Consider `[2H]C([2H])([2H])n1cc(-c2cc(OC)c(CN3CCN(CCC4CCN(c5ccc6c(c5)C(=O)N(C5CCC(=O)NC5=O)C6)CC4)CC3)c(OC)c2)c2cc(OC)ncc2c1=O` (stereo not drawn) [Compound D231], for which the DC50 is < 10 nM. Consider `COc1cc(-c2cn(C)c(=O)c3cnc(N4CCC4)cc23)cc(OC)c1CN1CCC(CN2CCC3(CN(c4ccc5c(c4)CN(C4CCC(=O)NC4=O)C5=O)C3)C(F)(F)C2)CC1` (stereo not drawn) [Compound D232], for which the DC50 was < 10 nM. In the case of `[2H]C([2H])([2H])n1cc(-c2cc(OC)c(CN3CCC4(CC3)CN(c3ccc5c(c3)C(=O)N(C3CCC(=O)NC3=O)C5)C4)c(OC)c2)c2cc(C3CC3)ncc2c1=O` (stereo not drawn) [Compound D233] it was < 10 nM. In the case of `[2H]C([2H])([2H])n1cc(-c2cc(OC)c(CN3CCC4(CC3)CN(c3ccc5c(c3)C(=O)N(C3CCC(=O)NC3=O)C5)C4)c(OC)c2)c2cc(OC)ncc2c1=O` (stereo not drawn) [Compound D234], the DC50 was < 10 nM. For `COc1cc2c(-c3cc(OC)c(CN4CCC(c5ccc6c(c5)CN(C5CCC(=O)NC5=O)C6=O)CC4)c(OC)c3)cn(C)c(=O)c2cn1` (stereo not drawn) [Compound D235], the DC50 is < 10 nM. In the case of `COc1cc(-c2cn(C)c(=O)c3cnc(N(C)C)cc23)cc(OC)c1CN1CCC(CN2CCC3(CC2)CN(c2ccc4c(c2)C(=O)N(C2CCC(=O)NC2=O)C4)C3)C(F)(F)C1` (stereo not drawn) [Compound D236], the DC50 is < 10 nM. Consider `COc1cc(-c2cn(C)c(=O)c3cnc(C4(C)CC4)cc23)cc(OC)c1CN1CCC(CCN2CCN(c3ccc4c(c3)C(=O)N(C3CCC(=O)NC3=O)C4)CC2)CC1` (stereo not drawn) [Compound D237], for which the DC50 was < 10 nM. `COc1cc(-c2cn(C)c(=O)c3cnc(C4(C)CC4)cc23)cc(OC)c1CN1CCC(CCN2CCN(c3ccc4c(c3)CN(C3CCC(=O)NC3=O)C4=O)CC2)CC1` (stereo not drawn) [Compound D238]: the DC50 is < 10 nM. As for `[2H]C([2H])([2H])n1cc(-c2cc(OC)c(CN3CC(Oc4ccc5c(c4)C(=O)N(C4CCC(=O)NC4=O)C5)C3)c(OC)c2)c2cc(OC)ncc2c1=O` (stereo not drawn) [Compound D239], the DC50 was < 10 nM. As to `[2H]C([2H])([2H])n1cc(-c2cc(OC)c(CN3CCN(CCC4CCN(c5ccc6c(c5)C(=O)N(C5CCC(=O)NC5=O)C6)CC4)CC3)c(OC)c2)c2cc(N(C)C)ncc2c1=O` (stereo not drawn) [Compound D240], the DC50 is < 10 nM. On to `COc1cc(-c2cn(C)c(=O)c3cnc(N4CC(F)(F)C4)cc23)cc(OC)c1CN1CCC(CCN2CCC3(CC2)CN(c2ccc4c(c2)C(=O)N(C2CCC(=O)NC2=O)C4)C3)CC1` (stereo not drawn) [Compound D241], for which the DC50 is < 10 nM.

`[2H]C([2H])([2H])n1cc(-c2cc(OC)c(CN3CC(Oc4ccc5c(c4)CN(C4CCC(=O)NC4=O)C5=O)C3)c(OC)c2)c2cc(OC)ncc2c1=O` (stereo not drawn) [Compound D242]: the DC50 was < 10 nM. `COc1cc(-c2cn(C)c(=O)c3cnc(C4CC4)cc23)cc(OC)c1CN1CCC(C(N2CCC3(CC2)CC(Oc2ccc4c(c2)C(=O)N(C2CCC(=O)NC2=O)C4)C3)C(F)(F)F)CC1` (stereo not drawn) [Compound D243]: the DC50 was < 10 nM. On to `[2H]C1CC(N2Cc3ccc(N4CCC(CCN5CCN(Cc6c(OC)cc(-c7cn(C)c(=O)c8cnc(N9CCC9)cc78)cc6OC)CC5)CC4)cc3C2=O)C(=O)NC1=O` (stereo not drawn) [Compound D244], for which the DC50 was < 10 nM.
